Results reported in patent US20060069132A1, “Azolecarboxamide herbicides” (priority 2004, published 2006).

Experiments:
barnyardgrass [1] = assay: Test A pre-/postemergence herbicide test; assay type: in vivo, Echinochloa crus-galli
Outline: (§1)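 Plants are held in greenhouse about ten days after treatment, then compared with untreated controls and scored 0 (no effect) to 100 (complete control). Preemergence dosing is a directed soil spray on sown sandy loam; postemergence dosing is spray to runoff at 2–10 cm height.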

large crabgrass [2] = assay: Test A pre-/postemergence herbicide test; assay type: in vivo, Digitaria sanguinalis
Outline: as §1

giant foxtail [3] = assay: Test A pre-/postemergence herbicide test; assay type: in vivo, Setaria faberi
Outline: as §1

morningglory [4] = assay: Test A pre-/postemergence herbicide test; assay type: in vivo, Ipomoea spp.
Outline: as §1

redroot pigweed = assay: Test A pre-/postemergence herbicide test; assay type: in vivo, Amaranthus retroflexus
Outline: as §1

velvetleaf [5] = assay: Test A pre-/postemergence herbicide test; assay type: in vivo, Abutilon theophrasti
Outline: as §1

barnyardgrass [6] = assay: Test B pre-/postemergence herbicide test; assay type: in vivo, Echinochloa crus-galli
Outline: (§2)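 Species tested were Echinochloa crus-galli, Ipomoea coccinea, Xanthium strumarium and Oryza sativa, treated both before emergence and at the 1- to 4-leaf stage; rice and barnyardgrass were also tested under flooding at 2 leaves. Greenhouse incubation lasted 13–15 days before visual 0–100 scoring.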

Surinam grass = assay: Test B pre-/postemergence herbicide test; assay type: in vivo, Urochloa decumbens
Outline: (§3)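 Formulation: non-phytotoxic solvent mix with surfactant. Timing: preemergence on seed and postemergence on 2–18 cm plants, applied concurrently. Readout after 13–15 d greenhouse: visual 0–100 control rating against controls.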

cocklebur = assay: Test B pre-/postemergence herbicide test; assay type: in vivo, Xanthium strumarium
Outline: as §2

corn = assay: Test B pre-/postemergence herbicide test; assay type: in vivo, Zea mays
Outline: as §3

large crabgrass [7] = assay: Test B pre-/postemergence herbicide test; assay type: in vivo, Digitaria sanguinalis
Outline: as §3

giant foxtail [8] = assay: Test B pre-/postemergence herbicide test; assay type: in vivo, Setaria faberi
Outline: as §3

lambsquarters = assay: Test B pre-/postemergence herbicide test; assay type: in vivo, Chenopodium album
Outline: as §3

morningglory [9] = assay: Test B pre-/postemergence herbicide test; assay type: in vivo, Ipomoea coccinea
Outline: as §2

pigweed = assay: Test B pre-/postemergence herbicide test; assay type: in vivo, Amaranthus retroflexus
Outline: as §3

rice [10] = assay: Test B pre-/postemergence herbicide test; assay type: in vivo, Oryza sativa; conditions: preemergence
Outline: as §3

velvetleaf [11] = assay: Test B pre-/postemergence herbicide test; assay type: in vivo, Abutilon theophrasti
Outline: as §3

blackgrass = assay: Test B postemergence herbicide test; assay type: in vivo, Alopecurus myosuroides; conditions: scale 0 (no effect) to 100 (complete control)
Outline: (§4)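 Plants grow to 1- to 4-leaf stage (2–18 cm) for postemergence spraying, or to 2-leaf stage for the paddy test. Formulated compound is applied. Greenhouse holding lasts 13–15 days. Response is scored visually relative to controls, 0 no effect to 100 complete control; a dash means no result.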

wheat = assay: Test B postemergence herbicide test; assay type: in vivo, Triticum aestivum; design: key to Wheat plant response rating: 0 = no effect, 100 = complete control; conditions: scale 0 (no effect) to 100 (complete control)
Outline: (§5)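 After treating 2-leaf paddy plants or 2–18 cm postemergence plants (1 to 4 leaves) with formulated chemical, researchers kept them in a greenhouse for 13–15 days. Effects were judged visually versus controls: 0 indicates none, 100 total control.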

wild oat = assay: Test B postemergence herbicide test; assay type: in vivo, Avena fatua; conditions: scale 0 (no effect) to 100 (complete control)
Outline: as §5

rice [12] = assay: Test B flooded paddy test; assay type: in vivo, Oryza sativa; conditions: 1000 g ai/ha, visual rating, scale 0 to 100 (0 no effect, 100 complete control), 13 to 15 days
Outline: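 Scale 0–100: zero equals no visible effect, 100 complete control, judged by eye relative to controls. Timing: 13 to 15 days in greenhouse post-treatment. Growth stage at spraying: two leaves (paddy) or one to four leaves, 2–18 cm (postemergence).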

[13] = tested on: small flower umbrella sedge; assay: Test B flooded paddy test; assay type: in vivo, Cyperus difformis; conditions: 1000 g ai/ha, visual rating, scale 0 to 100 (0 no effect, 100 complete control), 13 to 15 days
Outline: as §4

ducksalad = assay: Test B flooded paddy test; assay type: in vivo, Heteranthera limosa; conditions: 1000 g ai/ha, visual rating, scale 0 to 100 (0 no effect, 100 complete control), 13 to 15 days
Outline: as §4

barnyardgrass [14] = assay: Test B flooded paddy test; assay type: in vivo, Echinochloa crus-galli; conditions: 1000 g ai/ha, visual rating, scale 0 to 100 (0 no effect, 100 complete control), 13 to 15 days
Outline: as §4

[15] = Postemergence, 500 g ai/ha, 0 to 100 scale, 0 no effect, 100 complete control
[16] = Postemergence, 2000 g ai/ha, 0 to 100 scale, 0 no effect, 100 complete control
[17] = Preemergence, 500 g ai/ha, visual rating, 0 to 100 scale (0 no effect, 100 complete control)
[18] = Preemergence, 2000 g ai/ha, 0 to 100 scale, 0 no effect, 100 complete control
[19] = 500 g ai/ha, visual rating 0-100, 0 no effect, 100 complete control, preemergence
[20] = Postemergence, 500 g ai/ha, visual rating after 13 to 15 days, scale 0 (no effect) to 100 (complete control)
[21] = postemergence, 125 g ai/ha, visual rating, scale 0 (no effect) to 100 (complete control)
[22] = preemergence, 125 g ai/ha, 0 to 100 scale, 0 is no effect, 100 is complete control
[23] = Postemergence, 500 g ai/ha, visual rating after 13 to 15 days
[24] = postemergence, 125 g ai/ha, visual rating

SMILES: CCn1nc(C(C)(C)C)cc1C(=O)Nc1cccc(C(=O)OCC2CC2)c1C [Compound 93]
- Barnyardgrass plant response rating (barnyardgrass [1]; [15]): 20
- Plant response rating, Barnyardgrass (barnyardgrass [1]; [16]): 25
- Barnyardgrass plant response rating (barnyardgrass [1]; [17]): 25
- Barnyardgrass plant response rating (barnyardgrass [1]; [18]): 40
- Crabgrass, Large plant response rating (large crabgrass [2]; [15]): 10
- Plant response rating, Crabgrass, Large (large crabgrass [2]; [16]): 15
- Crabgrass, Large plant response rating (large crabgrass [2]; [17]): 35
- Crabgrass, Large plant response rating (large crabgrass [2]; [18]): 70
- Foxtail, Giant plant response rating (giant foxtail [3]; [15]): 10
- Plant response rating, Foxtail, Giant (giant foxtail [3]; [16]): 10
- Foxtail, Giant plant response rating (giant foxtail [3]; [17]): 35
- Foxtail, Giant plant response rating (giant foxtail [3]; [18]): 60
- Morningglory plant response rating (morningglory [4]; [15]): 5
- Plant response rating, Morningglory (morningglory [4]; [16]): 10
- Morningglory plant response rating (morningglory [4]; [17]): 5
- Morningglory plant response rating (morningglory [4]; [18]): 20
- Pigweed plant response rating (redroot pigweed; [15]): 20
- Plant response rating, Pigweed (redroot pigweed; [16]): 30
- Pigweed plant response rating (redroot pigweed; [17]): 40
- Pigweed plant response rating (redroot pigweed; [18]): 70
- Velvetleaf plant response rating (velvetleaf [5]; [15]): 10
- Plant response rating, Velvetleaf (velvetleaf [5]; [16]): 15
- Velvetleaf plant response rating (velvetleaf [5]; [17]): 10
- Velvetleaf plant response rating (velvetleaf [5]; Preemergence, 2000 g ai/ha, visual rating, 0 to 100 scale (0 no effect, 100 complete control)): 25
- Plant response rating, Barnyardgrass (barnyardgrass [6]; [19]): 20
- Plant response rating, Barnyardgrass (barnyardgrass [6]; [20]): 10
- Barnyardgrass plant response rating (barnyardgrass [6]; [21]): 10
- Plant response rating, Barnyardgrass (barnyardgrass [6]; [22]): 0
- Plant response rating, Surinam Grass (Surinam grass; [19]): 0
- Plant response rating, Surinam Grass (Surinam grass; [20]): 10
- Surinam Grass plant response rating (Surinam grass; [21]): 10
- Plant response rating, Surinam Grass (Surinam grass; [22]): 0
- Plant response rating, Cocklebur (cocklebur; [19]): 0
- Plant response rating, Cocklebur (cocklebur; [20]): 50
- Cocklebur plant response rating (cocklebur; [21]): 50
- Plant response rating, Cocklebur (cocklebur; [22]): 0
- Plant response rating, Corn (corn; [19]): 10
- Plant response rating, Corn (corn; [20]): 20
- Corn plant response rating (corn; [21]): 10
- Plant response rating, Corn (corn; [22]): 10
- Plant response rating, Crabgrass, Large (large crabgrass [7]; [19]): 20
- Plant response rating, Crabgrass, Large (large crabgrass [7]; [20]): 10
- Crabgrass, Large plant response rating (large crabgrass [7]; [21]): 10
- Plant response rating, Crabgrass, Large (large crabgrass [7]; [22]): 10
- Plant response rating, Foxtail, Giant (giant foxtail [8]; [19]): 30
- Plant response rating, Foxtail, Giant (giant foxtail [8]; [20]): 10
- Foxtail, Giant plant response rating (giant foxtail [8]; [21]): 10
- Plant response rating, Foxtail, Giant (giant foxtail [8]; [22]): 10
- Plant response rating, Lambsquarters (lambsquarters; [19]): 70
- Plant response rating, Lambsquarters (lambsquarters; [20]): 90
- Lambsquarters plant response rating (lambsquarters; [21]): 60
- Plant response rating, Lambsquarters (lambsquarters; [22]): 0
- Plant response rating, Morningglory (morningglory [9]; [19]): 10
- Plant response rating, Morningglory (morningglory [9]; [20]): 40
- Morningglory plant response rating (morningglory [9]; [21]): 10
- Plant response rating, Morningglory (morningglory [9]; [22]): 0
- Plant response rating, Pigweed (pigweed; [19]): 70
- Plant response rating, Pigweed (pigweed; [20]): 30
- Pigweed plant response rating (pigweed; [21]): 10
- Plant response rating, Pigweed (pigweed; [22]): 0
- Plant response rating, Rice (rice [10]; 500 g ai/ha, visual rating 0-100, 0 no effect, 100 complete control): 0
- Plant response rating, Rice (rice [10]; 125 g ai/ha, 0 to 100 scale, 0 is no effect, 100 is complete control): 0
- Plant response rating, Velvetleaf (velvetleaf [11]; [19]): 10
- Plant response rating, Velvetleaf (velvetleaf [11]; [20]): 10
- Velvetleaf plant response rating (velvetleaf [11]; [21]): 10
- Plant response rating, Velvetleaf (velvetleaf [11]; [22]): 0
- Plant response rating, Blackgrass (blackgrass; [23]): 10
- Blackgrass plant response rating (blackgrass; [24]): 10
- Plant response rating, Wheat (wheat; [23]): 10
- Wheat plant response rating (wheat; [24]): 10
- Plant response rating, Oat, Wild (wild oat; [23]): 10
- Oat, Wild plant response rating (wild oat; [24]): 10
- Rice plant response rating (rice [12]): 20
- Sedge, Umbrella plant response rating [13]: 70
- Ducksalad plant response rating (ducksalad): 10
- Barnyardgrass plant response rating (barnyardgrass [14]): 0
